This note sets out measurements from patent US8785483B2, “Methods for treating COPD” (The Board of Regents of the University of Texas System, priority 2010, dated 2014).

Series [1] relates to airway epithelial cell monolayer (SAEC at ALI). Briefly: Air-liquid interface culture: IL-13-induced loss of cilia and goblet cell metaplasia (H&E, PAS, β-tubulin and Muc5AC immunostaining). The format is cell-based, human. The method, then: FIGS. 4A-4B. AR inhibition prevents IL-13-induced loss of cilia and β-tubulin in airway epithelial cell monolayer. Approximately 8.5×10^4 SAEC were seeded per 12 mm diameter PET transparent insert and cultured for 7 days in differentiation media supplied from both lower and upper sides followed by culture on ALI for 11 days for differentiation into ciliated cells. The monolayer was treated with AR inhibitor for overnight and stimulated with IL-13 for 48 h. The monolayers on the membrane inserts were fixed for 24 h in z-fix (10% buffered formalin with zinc) at 4° C., paraffin embedded and […] sections were cut. (A) The H&E stained sections were examined under the light microscope; magnification 400×. […] (B) Immunohistochemistry using β-tubulin antibodies was performed on the sections. Dark brown staining in the monolayer corresponds to cilia axoneme β-tubulin. Arrows show loss of β-tubulin as the ciliated cells transform into goblet cells. A representative photomicrograph has been shown (n=4); magnification 400×. FIGS. 5A-5B. AR inhibition prevents IL-13-induced goblet cell metaplasia and expression of Muc5AC in airway epithelial monolayer. (A) The well-differentiated airway epithelial cells at air-liquid interface (ALI) were incubated with IL-13 for 48 h without or with AR inhibitor, fidarestat. The monolayer was fixed as described and immunohistochemistry using Muc5AC antibodies was performed on the sections. A representative photomicrograph is shown (n=4); magnification 400×. […] (C) The airway epithelial monolayer was incubated with IL-13 submerged in basal medium for 48 h in the absence and presence of AR inhibitor, fidarestat. The culture medium was collected from the top chamber and utilized for determination of Muc5AC by an ELISA, (n=4); *p<0.005 vs Control; **p<0.01 vs IL-13. For air-liquid interface (ALI) culture, SAEC were seeded at 8.5×10^4 cells/12-mm-diameter PET transparent insert with […] pores (12-well millicell culture insert; Millipore) and pre-coated with rat tail collagen type-1 (Sigma-Aldrich). The cells were grown submerged in the differentiation medium as described earlier by Zhen et al. (Am J Respir Cell Mol Biol 36: 244-253, 2007). The differentiation medium contained a 1:1 mixture of DMEM and small airway epithelial growth medium supplemented as described above, except that gentamycin sulfate, amphotericin B, and triiodothyronine were replaced with 1% penicillin/streptomycin, and 50 nM all-trans retinoic acid. The SAEC were maintained submerged for the first 7 days, after which the apical medium was removed and an air-liquid interface culture was established. […] The stained sections were analyzed and representative fields were photographed using a Photometrix CoolSNAP Fx camera mounted on a NIKON Eclipse TE 200 UV microscope. […]

Series [2] has as its system Muc5AC. Briefly: Muc5AC ELISA in culture medium. The format is cell-based, human. As to conditions: airway epithelial monolayer, IL-13 48 h. The method, then:
FIGS. 5A-5B. AR inhibition prevents IL-13-induced goblet cell metaplasia and expression of Muc5AC in airway epithelial monolayer. (A) The well-differentiated airway epithelial cells at air-liquid interface (ALI) were incubated with IL-13 for 48 h without or with AR inhibitor, fidarestat. The monolayer was fixed as described and immunohistochemistry using Muc5AC antibodies was performed on the sections. A representative photomicrograph is shown (n=4); magnification 400×. […] (C) The airway epithelial monolayer was incubated with IL-13 submerged in basal medium for 48 h in the absence and presence of AR inhibitor, fidarestat. The culture medium was collected from the top chamber and utilized for determination of Muc5AC by an ELISA, (n=4); *p<0.005 vs Control; **p<0.01 vs IL-13. For air-liquid interface (ALI) culture, SAEC were seeded at 8.5×10^4 cells/12-mm-diameter PET transparent insert with […] pores (12-well millicell culture insert; Millipore) and pre-coated with rat tail collagen type-1 (Sigma-Aldrich). The cells were grown submerged in the differentiation medium as described earlier by Zhen et al. (Am J Respir Cell Mol Biol 36: 244-253, 2007). […] Muc5AC levels in the culture medium were assessed by ELISA using commercially available human anti-Muc5AC ELISA essentially as described by the manufacturer (Cosmo Bio USA; Carlsbad, Calif.).
On the technique in general: An ELISA detects its analyte on a solid surface through an enzyme-linked reagent.

Molecules are shown by their SMILES.

On to `NC(=O)[C@@H]1C[C@]2(NC(=O)NC2=O)c2cc(F)ccc2O1` [fidarestat, (2S,4S)-2-aminoformyl-6-fluoro-spiro[chroman-4,4′-imidazolidine]-2′,5′-dione], for which, in series [1] (IL-13 48 h, Muc5AC immunostaining), the “decrease in number of Muc5AC positive cells” value is listed as around 70%. For the same compound, in series [1] (fidarestat 10 μM overnight, IL-13 25 ng/ml 48 h), the “ciliated morphology (β-tubulin immunostaining) after IL-13” value is recorded as “preserved the ciliated morphology”. In addition, the “differentiation of airway cells into goblet cells (PAS staining)” value in series [1] (inhibitor added prior to IL-13 challenge, 48 h, data not shown) is listed as “prevented the airway cells from differentiating into goblet cells”. Moreover, the “toxic effects of AR inhibitor alone on monolayer of ciliated cells” value in series [1] (inhibitor alone, no IL-13) is recorded as “no toxic effects”. For the same compound, in series [2], the “prevention of IL-13-induced secretion of Muc5AC in the medium” value was around 80%.
